Source: publication PMC3914206

Assays:
Assay type in all cases: binding
Set-up in all cases: KINOMEscan: ABL1(F317L)-phosphorylated / KINOMEscan: ABL1(H396P)-nonphosphorylated / KINOMEscan: ABL1(H396P)-phosphorylated / KINOMEscan: ABL1(M351T)-phosphorylated / KINOMEscan: ABL1(T315I)-phosphorylated / KINOMEscan: ABL1-nonphosphorylated / KINOMEscan: ABL1-phosphorylated / KINOMEscan: ACVR2A / KINOMEscan: ACVR2B / KINOMEscan: ADCK3 / KINOMEscan: ADCK4 / KINOMEscan: AKT1 / KINOMEscan: AKT3 / KINOMEscan: ALK / KINOMEscan: ARK5 / KINOMEscan: AURKA / KINOMEscan: AURKC / KINOMEscan: BIKE / KINOMEscan: BMPR1A / KINOMEscan: BMPR1B / KINOMEscan: BMX / KINOMEscan: BRK / KINOMEscan: BRSK1 / KINOMEscan: BRSK2 / KINOMEscan: CAMK1 / KINOMEscan: CAMK1D / KINOMEscan: CAMK1G / KINOMEscan: CAMK2A / KINOMEscan: CAMK2B / KINOMEscan: AAK1 / KINOMEscan: CAMK2D / KINOMEscan: CAMK2G / KINOMEscan: ABL1(F317I)-nonphosphorylated / KINOMEscan: ABL1(F317I)-phosphorylated / KINOMEscan: ABL1(F317L)-nonphosphorylated: unit: % Ctrl
Settings in all cases: Compound Concentration 10 µM
panel of 442 kinases [1] = target: T1, panel of 442 kinases (Homo sapiens, UniProt P27037)
T1 construct: purchased KINOMEscan
Excerpt: (§1) We assessed the selectivity of members of this scaffold using the KINOMEscan methodology across a near comprehensive panel of 442 kinases [[18,27]].

panel of 442 kinases [2] = target: T2, panel of 442 kinases (Homo sapiens, UniProt Q9UBE8)
T2 construct: purchased KINOMEscan
T2 sequence (Q9UBE8 1-527): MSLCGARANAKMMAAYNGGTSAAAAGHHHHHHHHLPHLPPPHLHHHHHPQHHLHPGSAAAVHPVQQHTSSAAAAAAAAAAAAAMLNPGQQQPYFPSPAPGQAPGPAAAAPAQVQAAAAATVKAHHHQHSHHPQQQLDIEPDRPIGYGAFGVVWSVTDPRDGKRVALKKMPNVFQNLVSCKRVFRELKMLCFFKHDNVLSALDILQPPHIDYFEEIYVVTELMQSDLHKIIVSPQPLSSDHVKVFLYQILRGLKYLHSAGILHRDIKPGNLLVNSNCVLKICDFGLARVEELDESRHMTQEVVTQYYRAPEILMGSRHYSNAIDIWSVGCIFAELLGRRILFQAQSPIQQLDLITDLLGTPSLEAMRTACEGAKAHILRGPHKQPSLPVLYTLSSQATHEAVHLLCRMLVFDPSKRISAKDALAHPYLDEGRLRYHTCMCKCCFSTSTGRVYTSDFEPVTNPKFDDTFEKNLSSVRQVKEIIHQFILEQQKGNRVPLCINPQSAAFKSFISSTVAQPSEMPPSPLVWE
Excerpt: as §1

panel of 442 kinases [3] = target: T3, panel of 442 kinases (Homo sapiens, UniProt Q9BWU1)
T3 construct: purchased KINOMEscan
Excerpt: as §1

T3 sequence (Q9BWU1 whole entry): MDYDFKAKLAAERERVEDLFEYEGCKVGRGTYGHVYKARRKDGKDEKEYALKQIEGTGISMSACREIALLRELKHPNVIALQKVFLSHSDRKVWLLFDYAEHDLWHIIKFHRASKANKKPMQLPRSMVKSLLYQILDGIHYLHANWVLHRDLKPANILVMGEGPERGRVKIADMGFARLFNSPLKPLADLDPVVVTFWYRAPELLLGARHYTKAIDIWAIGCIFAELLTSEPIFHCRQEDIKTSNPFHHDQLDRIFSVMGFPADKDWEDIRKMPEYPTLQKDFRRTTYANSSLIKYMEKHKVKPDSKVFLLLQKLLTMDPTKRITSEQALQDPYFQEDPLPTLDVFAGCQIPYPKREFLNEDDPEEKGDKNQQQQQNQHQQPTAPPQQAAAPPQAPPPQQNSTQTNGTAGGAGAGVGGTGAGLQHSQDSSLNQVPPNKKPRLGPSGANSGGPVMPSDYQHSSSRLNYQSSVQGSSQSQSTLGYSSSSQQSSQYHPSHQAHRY
T1 sequence (P27037 20-513): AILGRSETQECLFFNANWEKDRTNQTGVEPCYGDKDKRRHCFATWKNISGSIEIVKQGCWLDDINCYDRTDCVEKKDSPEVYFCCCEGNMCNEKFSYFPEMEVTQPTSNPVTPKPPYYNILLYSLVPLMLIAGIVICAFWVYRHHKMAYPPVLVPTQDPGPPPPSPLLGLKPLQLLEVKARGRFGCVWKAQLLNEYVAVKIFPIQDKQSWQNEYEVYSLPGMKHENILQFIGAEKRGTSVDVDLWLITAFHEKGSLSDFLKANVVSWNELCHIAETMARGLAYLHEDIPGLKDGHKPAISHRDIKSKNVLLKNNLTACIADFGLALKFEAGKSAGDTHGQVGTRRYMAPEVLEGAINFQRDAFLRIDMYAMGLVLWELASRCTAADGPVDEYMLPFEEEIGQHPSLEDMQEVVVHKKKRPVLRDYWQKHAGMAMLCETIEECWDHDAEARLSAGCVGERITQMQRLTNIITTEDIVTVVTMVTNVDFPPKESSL

Compound	KINOMEscan: ACVR2A (panel of 442 kinases [1])	KINOMEscan: NLK (panel of 442 kinases [2])	KINOMEscan: CDK11 (panel of 442 kinases [3])
COc1cc(C(=O)N2CCC(N3CCN(C)CC3)CC2)ccc1Nc1ncc2c(n1)N1CCc3cccc(c31)C(=O)N2C [Compound 24]	71	68	96
CCOc1cc(C(=O)N2CCC(N3CCN(C)CC3)CC2)ccc1Nc1ncc2c(n1)N(C1CCCC1)c1ccccc1C(=O)N2C [Compound 26]	95	78	100
COc1cc(C(=O)N2CCC(N3CCN(C)CC3)CC2)ccc1Nc1ncc2c(n1)N(C1CCCC1)c1ccccc1C(=O)N2C [Compound 25, 11-cyclopentyl-2-((2-methoxy-4-(4-(4-methylpiperazin-1-yl)piperidine-1-carbonyl)phenyl)amino)-5-methyl-5H-benzo[e]pyrimido[5,4-b][1,4]diazepin-6(11H)-one]	93	63	87
COc1cc(C(=O)N2CCC(N3CCN(C)CC3)CC2)ccc1Nc1ncc2c(n1)N(C)c1ccccc1C(=O)N2C [15 (LRRK2-IN-1)]	100	50	100
